The source of these data is ChEMBL document CHEMBL1828530, “Quinonoid and phenazine compounds: synthesis and evaluation against H37Rv, rifampicin and isoniazid-resistance strains of Mycobacterium tuberculosis” (Eur J Med Chem, 2011).

In brackets after ≈: the same amount, converted by molar mass.

Assay [1] concerns Mycobacterium tuberculosis. The experiment in a line: Antitubercular activity against isoniazid-resistant Mycobacterium tuberculosis ATCC 35822 harboring Ser-315-Tri mutation in katG gene after 9 days by resazurin reduction assay. The format is functional. (Resazurin is reduced to fluorescent resorufin, in cell work by metabolically active cells.)
In assay [2] the test system is Mycobacterium tuberculosis. Nature of the assay: Antitubercular activity against rifampicin-resistant Mycobacterium tuberculosis ATCC 35338 harboring His-526-Tri mutation in rpoB gene after 9 days by resazurin reduction assay. In kind it is functional.

The term MIC denotes the least concentration at which growth counts as inhibited. In the case of `CC(C)CCC1=C(O)C(=O)c2ccccc2C1=O`, the MIC in assay [1] and in assay [2] was 205 µM (≈ 50.1 µg/mL) in each case.

For the molecule `CC(C)CC1=C(O)C(=O)c2ccccc2C1=O`, the MIC in assay [1] amounted to 217.4 µM (≈ 50.1 µg/mL); in assay [2], 108.7 µM (≈ 25 µg/mL).

Consider `CC(C)CC1=C(O)C(=O)C2=C(CCCC2)C1=O`, for which the minimal inhibitory concentration (MIC) in assay [1] is 106.7 µM (≈ 25 µg/mL); in assay [2] it was 53.35 µM (≈ 12.5 µg/mL).

In the case of `CCCC1=C(O)C(=O)c2ccccc2C1=O`, the figures for the MIC in assay [1] and in assay [2] were 462.5 µM (≈ 100 µg/mL) and 231.25 µM (≈ 50 µg/mL), respectively.

Take `CCCC1=C(O)C(=O)C2=C(CCCC2)C1=O`: the minimum inhibitory concentration (MIC) in assay [1] and in assay [2] was 113.5 µM (≈ 25 µg/mL) throughout.

Turning to `CC(C)=CCC1=C(OC2(CC=C(C)C)C(=O)c3ccccc3-c3nc4ccccc4nc32)C(=O)c2ccccc2C1=O` (stereo not drawn), the values for the MIC in assay [1] and in assay [2] were greater than 180.2 µM and 180.2 µM (≈ 99.9 µg/mL), respectively.

Take `CC(C)CCc1c2[nH]c3ccccc3nc-2c2ccccc2c1=O`: the MIC in assay [1] and in assay [2] was 39.5 µM (≈ 12.5 µg/mL) throughout.

As to `CC(C)CCc1c2[nH]c3ccccc3nc-2c2c(c1=O)CCCC2`, the MIC in assay [1] is greater than 312.5 µM; in assay [2], 39.1 µM (≈ 12.5 µg/mL).

Consider `CC(C)CCC1=C(OC2(CCC(C)C)C(=O)c3ccccc3-c3nc4ccccc4nc32)C(=O)c2ccccc2C1=O` (stereo not drawn), for which the minimum inhibitory concentration (MIC) in assay [1] and in assay [2] was greater than 178.9 µM each time.

In the case of `CC(C)CCC1=C(OC2(CCC(C)C)C(=O)C3=C(CCCC3)c3nc4ccccc4nc32)C(=O)C2=C(CCCC2)C1=O` (stereo not drawn), the figures for the MIC in assay [1] and in assay [2] were greater than 176.4 µM and 176.4 µM (≈ 100 µg/mL), respectively.

On to `CC(C)=Cc1c2[nH]c3ccccc3nc-2c2ccccc2c1=O`, for which the minimum inhibitory concentration (MIC) in assay [1] and in assay [2] was 83.3 µM (≈ 25 µg/mL) each time.

`CC(C)Cc1c2[nH]c3ccccc3nc-2c2ccccc2c1=O`: the MIC in assay [1] and in assay [2] was greater than 331.1 µM in each case.

With `CC(C)Cc1c2[nH]c3ccccc3nc-2c2c(c1=O)CCCC2`, the minimum inhibitory concentration (MIC) in assay [1] and in assay [2] was greater than 326.8 µM each time.

In the case of `CC(C)CC1=C(OC2(CC(C)C)C(=O)c3ccccc3-c3nc4ccccc4nc32)C(=O)c2ccccc2C1=O` (stereo not drawn), the minimum inhibitory concentration (MIC) in assay [1] and in assay [2] was greater than 188.3 µM throughout.

`CC(C)CC1=C(OC2(CC(C)C)C(=O)C3=C(CCCC3)c3nc4ccccc4nc32)C(=O)C2=C(CCCC2)C1=O` (stereo not drawn): the MIC in assay [1] and in assay [2] was 46.4 µM (≈ 25 µg/mL) throughout.

With `C=CCC1=C(O)C(=O)c2ccccc2C1=O`, the MIC in assay [1] was found to be 467.3 µM (≈ 100 µg/mL); in assay [2] it was 116.8 µM (≈ 25 µg/mL).

With `C=CCc1c2[nH]c3ccccc3nc-2c2ccccc2c1=O`, the minimal inhibitory concentration (MIC) in assay [1] stood at 43.7 µM (≈ 12.5 µg/mL); in assay [2] it was 174.8 µM (≈ 50.1 µg/mL).

For `C=CCC1=C(OC2(CC=C)C(=O)c3ccccc3-c3nc4ccccc4nc32)C(=O)c2ccccc2C1=O` (stereo not drawn), the minimal inhibitory concentration (MIC) in assay [1] and in assay [2] was greater than 200.8 µM in each case.

With `CCCC1=C(OC2(CCC)C(=O)c3ccccc3-c3nc4ccccc4nc32)C(=O)c2ccccc2C1=O` (stereo not drawn), the MIC in assay [1] and in assay [2] was greater than 198.8 µM each time.

Turning to `CCCC1=C(OC2(CCC)C(=O)C3=C(CCCC3)c3nc4ccccc4nc32)C(=O)C2=C(CCCC2)C1=O` (stereo not drawn), the figures for the MIC in assay [1] and in assay [2] were greater than 195.7 µM and 195.7 µM (≈ 99.9 µg/mL), respectively.

Take `CC(C)CCC1=C(O)C(=O)C2=C(CCCC2)C1=O`: the MIC in assay [1] came to 100.8 µM (≈ 25 µg/mL); in assay [2], 50.4 µM (≈ 12.5 µg/mL).

Take `CC(C)=CC1=C(O)C(=O)c2ccccc2C1=O`: the minimum inhibitory concentration (MIC) in assay [1] stood at 438.6 µM (≈ 100 µg/mL); in assay [2], 13.7 µM (≈ 3.13 µg/mL).

Turning to `NNC(=O)c1ccncc1` [ISONIAZID], the MIC in assay [1] is 1.45 µM (≈ 0.199 µg/mL).

Regarding `CC(C)=CCC1=C(O)C(=O)c2ccccc2C1=O` [LAPACHOL], the MIC in assay [1] is 413.2 µM (≈ 100 µg/mL); in assay [2] it was 206.6 µM (≈ 50.1 µg/mL).

The molecule `CO[C@H]1/C=C/O[C@@]2(C)Oc3c(C)c(O)c4c(O)c(c(/C=N/N5CCN(C)CC5)c(O)c4c3C2=O)NC(=O)/C(C)=C\C=C\[C@H](C)[C@H](O)[C@@H](C)[C@@H](O)[C@@H](C)[C@H](OC(C)=O)[C@@H]1C` [RIFAMPIN] showed an MIC in assay [2] of 2.43 µM (≈ 2 µg/mL).
